Measured values: ChEMBL document CHEMBL3352751, “7,9-Diaryl-1,6,8-trioxaspiro[4.5]dec-3-en-2-ones: readily accessible and highly potent anticancer compounds” (Bioorg Med Chem Lett, 2014)
Values after ≈ are worked out from the molar mass of the structure shown.

Assays:
[1] = Anticancer activity against human NMC-797 cells after 48 hrs by viability assay; type: functional, cell-based; conditions: NMC-797, 48 h
[2] = Anticancer activity against human MJ cells after 48 hrs by viability assay; type: functional, cell-based
[3] = test system: Escherichia coli; assay: Antimicrobial activity against Escherichia coli K-12 ATCC 25404 assessed as growth inhibition after 20 hrs by two-fold microdilution method; type: functional, organism-based; conditions: K-12 ATCC 25404, 20 h
[4] = test system: Bacillus subtilis; assay: Antimicrobial activity against Bacillus subtilis Marburg ATCC 6051 assessed as growth inhibition after 20 hrs by two-fold microdilution method; type: functional, organism-based; conditions: Marburg ATCC 6051, 20 h
[5] = test system: Mycolicibacterium smegmatis; assay: Antimicrobial activity against Mycobacterium smegmatis strain MC2 155 ATCC 700084 assessed as growth inhibition after 20 hrs by two-fold microdilution method; type: functional, organism-based; conditions: MC2 155 ATCC 700084, 20 h

| Compound | IC50 [1] | IC50 [2] | IC50 [3] | MIC95 [3] | IC50 [4] | MIC95 [4] | IC50 [5] | MIC95 [5] |
| --- | --- | --- | --- | --- | --- | --- | --- | --- |
| CC1[C@@H](c2cccc([N+](=O)[O-])c2)O[C@@H](c2cccc([N+](=O)[O-])c2)O[C@@]12C=CC(=O)O2 (mixture of isomers) | 12 µM | > 20 µM | – | – | – | – | – | – |
| O=C1C=C[C@]2(C[C@@H](c3ccccc3[N+](=O)[O-])O[C@@H](c3ccccc3[N+](=O)[O-])O2)O1 (racemic) | 0.064 µM | 0.17 µM | – | – | – | – | – | – |
| O=C1C=C[C@]2(C[C@@H](c3ccc([N+](=O)[O-])cc3)O[C@@H](c3ccc([N+](=O)[O-])cc3)O2)O1 (racemic) | 0.026 µM | 0.19 µM | – | – | – | – | – | – |
| O=C1C=C[C@]2(C[C@@H](c3cccc([N+](=O)[O-])c3)O[C@@H](c3cccc([N+](=O)[O-])c3)O2)O1 (racemic) | 0.047 µM | 0.17 µM | > 500 µM | > 500 µM | 216 µM | 425 µM (≈ 169 µg/mL) | > 500 µM | > 500 µM |
| O=C1C=C[C@]2(C[C@@H](c3cccc(C(F)(F)F)c3)O[C@@H](c3cccc(C(F)(F)F)c3)O2)O1 (racemic) | 0.03 µM | 0.19 µM | – | – | – | – | – | – |
| O=C1C=C[C@]2(C[C@@H](c3cccc(Cl)c3)O[C@@H](c3cccc(Cl)c3)O2)O1 (racemic) | 0.082 µM | 0.26 µM | > 500 µM | > 500 µM | 408 µM | > 500 µM | > 500 µM | > 500 µM |
| O=C1C=C[C@]2(C[C@@H](c3ccccc3)O[C@@H](c3ccccc3)O2)O1 (racemic) | 0.9 µM | 1.7 µM | > 500 µM | > 500 µM | 224 µM | > 500 µM | > 500 µM | > 500 µM |
| O=C1C=C[C@]2(C[C@@H](c3coc([N+](=O)[O-])c3)O[C@@H](c3coc([N+](=O)[O-])c3)O2)O1 (racemic) | 0.34 µM | 0.82 µM | – | – | – | – | – | – |
| O=C1C=C[C@]2(CCOCO2)O1 (racemic) | 8.6 µM | > 20 µM | – | – | – | – | – | – |
| O=C1C=C[C@]2(C[C@@H](c3c(F)c(F)c(F)c(F)c3F)O[C@@H](c3c(F)c(F)c(F)c(F)c3F)O2)O1 (racemic) | 0.57 µM | 2 µM | – | – | – | – | – | – |
| O=C1C=C[C@]2(C[C@@H](c3ccc4ccccc4c3[N+](=O)[O-])O[C@@H](c3ccc4ccccc4c3[N+](=O)[O-])O2)O1 (racemic) | 7.6 µM | > 20 µM | – | – | – | – | – | – |
| O=C1C=C[C@]2(C[C@@H](c3cccc([N+](=O)[O-])c3)O[C@@H](c3ccccc3)O2)O1 (racemic) | 0.16 µM | 0.37 µM | – | – | – | – | – | – |
| O=C1C=C[C@]2(C[C@@H](c3ccccc3)O[C@@H](c3cccc([N+](=O)[O-])c3)O2)O1 (racemic) | 0.12 µM | 0.34 µM | – | – | – | – | – | – |
| O=C1CC[C@]2(C[C@@H](c3cccc(C(F)(F)F)c3)O[C@@H](c3cccc(C(F)(F)F)c3)O2)O1 (racemic) | > 20 µM | > 20 µM | – | – | – | – | – | – |
